Peptide text beside a SMILES is read from it. * marks the point of attachment. Cbz = O=C(OCc1ccccc1)*; OtBu = CC(C)(C)O*
What was measured:
NotchΔE-EGFP [1] = experiment: cells; type: cell-based
From the text: To identify novel regulatory factors involved in Notch trafficking/processing an image-based high content screen was set up. […] NotchΔE-EGFP is a direct substrate for γ-secretase at the PM, and under physiological conditions is proteolytically processed to NICD-EGFP that translocates into the nucleus (for scheme see FIG. 1b), resulting in a strong nuclear EGFP-staining in steady state^15 (FIG. 1d). […] Importantly, changes in subcellular localization of the reporter are amenable to quantitation by automated microscopy^15. Accordingly, reporter fluorescence was determined in the nucleus (nuc) and in a ring around the nucleus (enuc), and the ratio enuc/nuc was evaluated (schematized in FIG. 1c). Thereafter, the assay design was functionally validated. […] The assay also reliably detected trafficking defects in the secretory pathway. […] Taken together, the assay was validated for reliably detecting concentration and time dependent changes in trafficking and processing of the Notch reporter.
Cells were seeded in 96-well plates at a density of 5000 cells/well in 100 μl medium. The next day, 100 μl medium containing the respective test compounds was added. Cells were incubated for 16 h, fixed and processed for automated microscopy. For the putative gamma-secretase inhibitors the enuc intensity was divided by the DAPT control and for the trafficking inhibitors normalized percentage inhibition against DAPT/DMSO controls of log 2 transformed nuc/enuc ratios were calculated. Relative activity values were read into “R” (http://www.r-project.org/) and EC50 estimates were calculated using four-parameter log-logistic fit with the package “drc”^51.
Images were acquired on an ArrayScan VTi automated microscope (ThermoFisher) and numerical data were extracted with the Compartmental Analysis BioApplication of the bundled software suite. Compound screening raw data were collected at the FMP and data transformation was performed according to standard procedures (ref 17 and supp. Refs 6-7).

APP = APP processing in HEK293 cells stably expressing APPswe; type: cell-based; conditions: 10 μM, 16 h
Description: (§1) FIG. 3: Effect of compounds on NotchΔE-EGFP, APP and Klotho trafficking and processing. a) HEK293 stably expressing APPswe or Klotho (KI) were incubated with DAPT or compounds (10 μM) for 16 h. Media were collected, cells lysed and both assayed by Western blotting using indicated antibodies. m, mature; im, immature; s, shedded ectodomain; CTF, C-terminal fragment. b) Membranes from HeLa-NotchΔE-EGFP and APPswe cells were isolated and subjected to a γ-secretase in vitro assay in the presence of DAPT or compounds as indicated. NICD and AICD were detected by Western Blotting using antibodies against the C-terminus of APP (top) or antibodies specific for NICD (bottom). c) Quantitation from 5 independent experiments.
To test if the compounds that affected NotchΔE-EGFP processing also affected APP processing, HEK293 cells were used that stably expressed APPswe, a mutated APP that yields robust amounts of Aβ^18. […] All other compounds had no effect on APPCTF or Aβ.
APP, APPs, APPCTF and Aβ detection was as described before^54 using antibodies 22C11 for APP and APPs, 6687 for APPCTF and 3552 and 2D8 for Aβ. Klotho was detected as described in Bloch et al.^20. Chemoluminescence was quantified on a LAS-4000 (Fuji) with MultiGauge software.

γ-secretase = experiment: In vitro γ-secretase assay with isolated membranes; type: biochemical; conditions: 37° C.
Description: as §1
To test whether FLI-06 affected other membrane proteins, Klotho, a type I protein processed like APP and Notch^20, was analyzed. […] To analyze γ-secretase activity, in vitro assays using isolated membranes were performed (FIG. 3b, c). Production of NICD-EGFP and AICD (APP intracellular domain) were assayed. Both were produced in vitro at 37° C. but not at 4° C., and their production was inhibited by DAPT.
For assaying AICD formation, membranes of HEK293 cells stably expressing APP with the Swedish mutation were isolated and incubated for 4 h at 37° C. according to Sastre et al.^52. For assaying NICD formation, membranes from HeLa NotchΔE-EGFP cells were mixed with membranes from HeLa NotchΔE-EGFP cells that were pre-treated with 10 μM DAPT overnight to enrich substrate. After incubation samples were loaded onto either 8% SDS-PA gels (NICD) or 10-20% Tris-Tricine gels (AICD), blotted and probed with cleaved-Notch antibody or antibody 6687 against APP C-terminus^53. Chemoluminescence was quantified on a LAS-4000 (Fuji) with MultiGauge software.

VSVG-EGFP = type: cell-based
COPII vesicles = experiment: In vitro COPII budding assay with permeabilized cells; type: biochemical; conditions: for budding of COPII vesicles after pretreatment of cells: cells pretreated with FLI-06 for 4 hours
YFP-GPI = experiment: Surface transport of YFP-GPI in HeLa cells; type: cell-based; conditions: 18 h; 1 ig/ml BFA or 10 iM FLI-06
KlothoS = experiment: Secretion of KlothoS from transfected HeLa cells; type: cell-based; conditions: 18 h
Description: Thereafter cells were fixed and analyzed by immunofluorescence microscopy. […] After incubating with compounds for 18 h media were collected, cells lysed and both analyzed by Western Blotting using Klotho antibody. As loading control membranes were probed for actin. […] […] Tunicamycin (Tun) and 5 mM DTT were used as positive controls. […] Shown is the average of three independent experiments, error bars indicate standard deviation.

NotchΔE-EGFP [2] = experiment: Fluorescence microscopy of reporter localization in HeLa NotchΔE-EGFP cells; type: cell-based; conditions: 50 μM compound

| SMILES | activity in NotchΔE-EGFP cells (enuc/nuc ratios) (NotchΔE-EGFP [1]; SAR and prior-art comparison, FIG. 5a/5b) | EC50 (NotchΔE-EGFP [1]; assay not given, read-out: EC50 as secretion inhibitor) [nM] | APPCTF in cells (APP) | APPs (shedded ectodomain) secretion (APP) | Aβ in the cell supernatant (APP) | glycosylation pattern of APP (APP) | NICD-EGFP and AICD production in isolated membranes (γ-secretase) | recruitment of VSVG-EGFP to ERES (VSVG-EGFP) | velocity of action on ER export (VSVG-EGFP) | budding of COPII vesicles after pretreatment of cells (COPII vesicles; 100 μM FLI-06 in reaction) | budding of COPII vesicles after pretreatment of cells (COPII vesicles; no FLI-06 in reaction) | COPII budding reaction, compound added directly to the assay (COPII vesicles; no FLI-06 pretreatment of cells) | surface transport of YFP-GPI (YFP-GPI) | secretion of KlothoS (KlothoS) | localization of NotchΔE-EGFP/NICD-EGFP (NotchΔE-EGFP [2]) |
| --- | --- | --- | --- | --- | --- | --- | --- | --- | --- | --- | --- | --- | --- | --- | --- |
| CC1=C(C(=O)OC2CCCCC2)C(c2ccc([N+](=O)[O-])cc2)C2=C(CC(C)(C)CC2=O)N1 (stereo not drawn) [FLI-06, Cyclohexyl 4-(4′-nitrophenyl)-2,7,7-trimethyl-5-oxo-1,4,5,6,7,8-hexahydroquinoline-3-carboxylate] | equally active as the initial screening hit | 2300 | no APPCTF accumulated | abolished the shedding of APPs | essentially disappeared | changed the glycosylation pattern of APP | did not affect γ-secretase in isolated membranes | strongly reduced | acts instantaneously on ER export | strongly | slightly inhibited | did not inhibit the COPII budding reaction | inhibit surface transport of YFP-GPI | inhibit secretion of KlothoS | – |
| Cn1c2ccccc2c2c(C(=O)N3CCN(Cc4ccc5c(c4)OCO5)CC3)cn(C3CCCC3)c(=O)c21 [FLI-14] | – | – | accumulated | – | essentially disappeared | – | did not affect γ-secretase in isolated membranes | – | – | – | – | – | – | – | strong reduction of nuclear NICD-EGFP fluorescence and concomitant accumulation at the PM |
| Cc1ccc(NC(=O)C(NS(=O)(=O)c2cccc3nsnc23)C(C)C)nc1 (stereo not drawn) [FLI-15] | – | – | accumulated | – | weakly reduced | – | clearly reduced NICD-EGFP and AICD production | – | – | – | – | – | – | – | strong reduction of nuclear NICD-EGFP fluorescence and concomitant accumulation at the PM |
| CC(C)CC(NC(=O)C(Cc1ccccc1)NC(=O)C1CCCN1C(=O)OCc1ccccc1)C(=O)OC(C)(C)C (stereo not drawn) [FLI-19] (Cbz-Pro-Phe-Leu-OtBu; configuration not given here) | – | – | – | reduced APPs secretion | – | – | did not affect γ-secretase in isolated membranes | – | – | – | – | – | – | – | strong reduction of nuclear NICD-EGFP fluorescence and concomitant accumulation at the PM |
| CC(=O)Nc1ccc2nc(NC(=O)CC34CC5CC(CC(C5)C3)C4)sc2c1 [FLI-20] | – | – | accumulated | reduced APPs secretion | weakly reduced | – | clearly reduced NICD-EGFP and AICD production | – | – | – | – | – | – | – | strong reduction of nuclear NICD-EGFP fluorescence and concomitant accumulation at the PM |

Reference: US9828344B2, “Inhibitors of the notch signaling pathway and secretion for use in medicine” (Leibniz-Institut für Altersforschung Fritz-Lipmann-Institut …, priority 2012, dated 2017)
